The record followed here is ChEMBL document CHEMBL4627278, “Discovery of 2-aminoisobutyric acid ethyl ester (AIBEE) phosphoramidate prodrugs for delivering nucleoside HCV NS5B polymerase inhibitors” (Bioorg Med Chem Lett, 2020).

Converted amounts (≈) assume the structure as drawn.

A short description of data set [1]: Half life in human hepatocytes. Type of data set: ADME, cell-based, Hepatocyte.
Data set [2] in a line: Aqueous solubility of compound at pH 7.4. To be noted: buffer. Type of data set: physicochemical.
A short description of data set [3]: Prodrug conversion in human hepatocytes assessed as nucleotide triphosphate level at 100 uM after 4 hrs. Type of data set: ADME, cell-based, Hepatocyte.
A short description of data set [4]: Prodrug conversion in human hepatocytes assessed as nucleotide triphosphate level at 100 uM incubated for 4 hrs followed by compound washout and further incubated in fresh media for 24 hrs. The format is ADME, cell-based, Hepatocyte.
A short description of data set [5]: Stability in human plasma assessed as parent compound remaining after 4 hrs. Conditions: read-out: Stability. Type of data set: ADME, cell-free.
Data set [6] in a line: Stability in dog plasma assessed as parent compound remaining after 4 hrs. The format is ADME, cell-free, Canis lupus familiaris. To be noted: read-out: Stability.
The nature of data set [7]: Prodrug conversion in dog liver assessed as nucleotide triphosphate level at 5 mg/kg, po after 4 hrs. The format is ADME, organism-based, Canis lupus familiaris. Conditions: in vivo.
A short description of data set [8]: Prodrug conversion in dog liver assessed as nucleotide triphosphate level at 5 mg/kg, po co-dosed with 5 mg/kg sofosbuvir after 4 hrs. Type of data set: ADME, organism-based, Canis lupus familiaris. To be noted: in vivo.
The nature of data set [9]: Prodrug conversion in dog liver assessed as nucleotide triphosphate level at 5 mg/kg, po measured after 24 hrs. The format is ADME, organism-based, Canis lupus familiaris. Conditions: in vivo.
Data set [10] is described as follows: Prodrug conversion in dog liver assessed as nucleotide triphosphate level at 5 mg/kg, po co-dosed with 5 mg/kg sofosbuvir after 24 hrs. Type of data set: ADME, organism-based, Canis lupus familiaris. Conditions: in vivo.
The nature of data set [11]: Prodrug conversion in dog liver assessed as (2S)-2-((((2R,3R,4R,5R)-4-bromo-4-chloro-5-(2,4-dioxo-3,4-dihydropyrimidin-1(2H)-yl)-3-hydroxytetrahydrofuran-2-yl)methoxy)(hydroxy)phosphorylamino)propanoic acid level at 5 mg/kg, po after 4 hrs. The format is ADME, organism-based, Canis lupus familiaris. To be noted: in vivo.
Data set [12] is described as follows: Prodrug conversion in dog liver assessed as 2-((((2R,3R,4R,5R)-4-bromo-4-chloro-5-(2,4-dioxo-3,4-dihydropyrimidin-1(2H)-yl)-3-hydroxytetrahydrofuran-2-yl)methoxy)(hydroxy)phosphorylamino)-2-methylpropanoic acid level at 5 mg/kg, po after 4 hrs. The format is ADME, organism-based, Canis lupus familiaris. Conditions: in vivo.
A short description of data set [13]: Prodrug conversion in dog liver assessed as (2S)-2-((((2R,3R,4R,5R)-4-bromo-4-chloro-5-(2,4-dioxo-3,4-dihydropyrimidin-1(2H)-yl)-3-hydroxytetrahydrofuran-2-yl)methoxy)(hydroxy)phosphorylamino)propanoic acid level at 5 mg/kg, po after 24 hrs. Type of data set: ADME, organism-based, Canis lupus familiaris. To be noted: in vivo.
The nature of data set [14]: Prodrug conversion in dog liver assessed as 2-((((2R,3R,4R,5R)-4-bromo-4-chloro-5-(2,4-dioxo-3,4-dihydropyrimidin-1(2H)-yl)-3-hydroxytetrahydrofuran-2-yl)methoxy)(hydroxy)phosphorylamino)-2-methylpropanoic acid level at 5 mg/kg, po after 24 hrs. Type of data set: ADME, organism-based, Canis lupus familiaris. Conditions: in vivo.
A short description of data set [15]: Prodrug conversion in dog liver assessed as 1-((2R,3R,4R,5R)-3-bromo-3-chloro-4-hydroxy-5-(hydroxymethyl)tetrahydrofuran-2-yl)pyrimidine-2,4(1H,3H)-dione level at 5 mg/kg, po after 4 hrs. To be noted: in vivo. Type of data set: ADME, organism-based, Canis lupus familiaris.
Data set [16] can be described thus: Prodrug conversion in dog liver assessed as 1-((2R,3R,4R,5R)-3-bromo-3-chloro-4-hydroxy-5-(hydroxymethyl)tetrahydrofuran-2-yl)pyrimidine-2,4(1H,3H)-dione level at 5 mg/kg, po after 24 hrs. The format is ADME, organism-based, Canis lupus familiaris. Conditions: in vivo.
Data set [17] is described as follows: Intrinsic clearance in human hepatocytes. The format is ADME, cell-based, Hepatocyte. Conditions: read-out: CLH (converted).
A short description of data set [18]: Lipophilicity, log D of compound. Conditions: octanol/water. The format is physicochemical.
The nature of data set [19]: Cytotoxicity against human HuH7 cells assessed as reduction in cell viability. The format is cell-based, Huh-7. Conditions: read-out: TD50 (the source's name).

`CC(C)C(=O)OC[C@H](C)NP(=O)(OC[C@H]1O[C@@H](n2ccc(=O)[nH]c2=O)[C@](Cl)(Br)[C@@H]1O)Oc1ccccc1` (stereo partly drawn): the half-life – broadly, the time needed for the level to fall by half in the phase considered – in [1] was > 30 min. The solubility (as a rule, the dissolved amount per volume that the medium holds) in data set [2] was > 200 µM. Further, the Drug metabolism was 2377 µM in [3]; 32 µM in [4]; 0.252 µg/g in data set [7]; 3.04 µg/g in data set [8]; 0.037 µg/g in data set [9]; 1.12 µg/g in data set [10]. For the same compound, the Drug metabolism in [11] is 0.151 µg/g; in [12], 0.151 µg/g; in [13], < 0.005 µg/g; in data set [14] it was < 0.005 µg/g; in data set [15], 0.177 µg/g; in [16] it was 0.006 µg/g. Moreover, the figures for the remaining at 4 h in data set [5] and in [6] were 0% and 54%, respectively.
Regarding `CC(C)OC(=O)C(C)(C)NP(=O)(OC[C@H]1O[C@@H](n2ccc(=O)[nH]c2=O)[C@](Cl)(Br)[C@@H]1O)Oc1ccccc1` (stereo partly drawn), the half-life in data set [1] is > 30 min. Besides, the solubility in data set [2] is > 200 µM. Also, the CLint scaled in [17] was 192 mL/min/kg. The Drug metabolism in data set [3] stood at 157 µM; in data set [4], 40 µM; in data set [7], 0.713 µg/g; in data set [8], 4.2 µg/g; in data set [9] it was 0.244 µg/g; in [10], 3.43 µg/g. Besides, the values for the Drug metabolism in data set [15] and in data set [16] were 0.252 µg/g and 0.04 µg/g, respectively. Besides, the remaining at 4 h was 109% in data set [5] and 104% in [6].
For the compound `CC(C)OC(=O)[C@H](C)N[P@](=O)(OC[C@H]1O[C@@H](n2ccc(=O)[nH]c2=O)[C@](Cl)(Br)[C@@H]1OC(=O)[C@@H](N)C(C)C)Oc1cccc2ccccc12`, the half-life in data set [1] is > 30 min. This compound returned a solubility in data set [2] of 4 µM (≈ 3.04 µg/mL).
For `CCOC(=O)C(C)(C)NP(=O)(OC[C@H]1O[C@@H](n2ccc(=O)[nH]c2=O)[C@](Cl)(Br)[C@@H]1O)Oc1ccccc1` (stereo partly drawn), in data set [1], the half-life was > 30 min. Also, the solubility in [2] is > 200 µM. For the same compound, the CLint scaled in data set [17] is 685 mL/min/kg. Besides, the Drug metabolism in data set [3] is 2114 µM; in data set [4], 43 µM; in [7], 14.73 µg/g; in data set [8], 4.02 µg/g; in [9] it was 4.56 µg/g; in data set [10], 3.47 µg/g. Moreover, the Drug metabolism in [11] came to 0.232 µg/g; in data set [12], 0.232 µg/g; in data set [13] it was 0.065 µg/g; in data set [14] it was 0.065 µg/g; in data set [15], 1.335 µg/g; in [16] it was 0.192 µg/g. Besides, the remaining at 4 h stood at 103% in [5] and 111% in data set [6].
With `CCOC(=O)[C@H](C)N[P@@](=O)(OC[C@H]1O[C@@H](n2ccc(=O)[nH]c2=O)[C@](Cl)(Br)[C@@H]1O)Oc1ccccc1`, the half-life in data set [1] is > 30 min. In addition, the CLint scaled in [17] was 185 mL/min/kg. Moreover, the Drug metabolism in data set [3] amounted to 738 µM; in data set [4], 39 µM.
For `CC(C)OC(=O)[C@H](C)N[P@@](=O)(OC[C@H]1O[C@@H](n2ccc(=O)[nH]c2=O)[C@](Cl)(Br)[C@@H]1O)Oc1ccccc1`, the half-life in data set [1] was > 30 min. In data set [2], the solubility is > 200 µM. In addition, in data set [17], the CLint scaled was 202 mL/min/kg. Besides, the Drug metabolism in data set [3] came to 107 µM; in data set [4], 24 µM; in data set [7], 0.143 µg/g; in data set [8] it was 1.76 µg/g; in data set [9] it was 0.036 µg/g; in [10], 1.26 µg/g. In addition, the Drug metabolism in [11] is 0.644 µg/g; in data set [12], 0.644 µg/g; in [13], < 0.005 µg/g; in data set [14], < 0.005 µg/g; in data set [15] it was 0.501 µg/g; in [16], 0.009 µg/g.
Turning to `CC(C)OC(=O)[C@H](C)N[P@](=O)(OC[C@H]1O[C@@H](n2ccc(=O)[nH]c2=O)[C@](Cl)(Br)[C@@H]1OC(=O)[C@@H](N)C(C)C)Oc1ccccc1`, in data set [1], the half-life is > 30 min. The solubility in data set [2] was > 200 µM. For the same compound, the Drug metabolism came to 169 µM in data set [3]; 24 µM in data set [4]; 0.828 µg/g in data set [7]; 3.1 µg/g in data set [8]; 0.409 µg/g in data set [9]; 2.89 µg/g in data set [10]. Moreover, the Drug metabolism was found to be 0.359 µg/g in data set [11]; 0.359 µg/g in data set [12]; 0.006 µg/g in [13]; 0.006 µg/g in data set [14]; 0.341 µg/g in [15]; 0.029 µg/g in data set [16].
As to `COCC(=O)OC[C@H](C)NP(=O)(OC[C@H]1O[C@@H](n2ccc(=O)[nH]c2=O)[C@](Cl)(Br)[C@@H]1O)Oc1ccccc1` (stereo partly drawn), the half-life in [1] is > 30 min. Also, in data set [17], the CLint scaled was 223 mL/min/kg. Moreover, the Drug metabolism turned out to be 120 µM in data set [3] and 16 µM in [4].
As for `CCOC(=O)[C@H](C)NP(=O)(OC[C@H]1O[C@@H](n2ccc(=O)[nH]c2=O)[C@](Cl)(Br)[C@@H]1O)Oc1ccccc1` (stereo partly drawn), the remaining at 4 h in [5] was 86%; in data set [6], 93%. Further, the Drug metabolism in [7] amounted to 1.24 µg/g; in data set [8] it was 3.87 µg/g; in data set [9], 0.629 µg/g; in data set [10] it was 3.18 µg/g; in [11], 0.357 µg/g; in data set [12], 0.357 µg/g. In addition, the Drug metabolism in [13] was 0.007 µg/g; in data set [14], 0.007 µg/g; in [15], 0.821 µg/g; in [16], < 0.025 µg/g.
`CC(C)OC(=O)[C@H](C)N[P@](=O)(OC[C@H]1O[C@@H](n2ccc(=O)[nH]c2=O)[C@](Cl)(Br)[C@@H]1O)Oc1cccc2ccccc12`: in data set [1], the half-life is > 30 min. The amount in solution in data set [2] (solubility) came to 17 µM (≈ 11.2 µg/mL). Besides, the CLint scaled in data set [17] was 575 mL/min/kg. Also, the Drug metabolism in [3] amounted to 81 µM; in data set [4], 9 µM.
As to `COCC(C)OC(=O)[C@H](C)NP(=O)(OC[C@H]1O[C@@H](n2ccc(=O)[nH]c2=O)[C@](Cl)(Br)[C@@H]1O)Oc1ccccc1` (stereo partly drawn), the half-life in data set [1] was > 30 min. Besides, the solubility in data set [2] was > 200 µM. In addition, the CLint scaled in data set [17] is 242 mL/min/kg. In addition, the Drug metabolism is 465 µM in data set [3]; 31 µM in data set [4]; 0.329 µg/g in data set [7]; 0.188 µg/g in [9]; 0.187 µg/g in data set [15]; 0.038 µg/g in data set [16]. Also, the figures for the remaining at 4 h in data set [5] and in data set [6] were 87% and 84%, respectively.
With `CCOC(=O)[C@H](C)N[P@](=O)(OC[C@H]1O[C@@H](n2ccc(=O)[nH]c2=O)[C@](Cl)(Br)[C@@H]1O)Oc1ccccc1`, in data set [1], the half-life is > 30 min. In addition, the CLint scaled in [17] was 152 mL/min/kg. Moreover, the Drug metabolism in data set [3] amounted to 90 µM; in [4] it was 18 µM.
The corresponding values for `COCC(C)C(=O)OC[C@H](C)NP(=O)(OC[C@H]1O[C@@H](n2ccc(=O)[nH]c2=O)[C@](Cl)(Br)[C@@H]1O)Oc1ccccc1` (stereo partly drawn) are > 30 min, 282 mL/min/kg, 188 µM and 24 µM.
As to `COc1cccc(O[P@](=O)(N[C@@H](C)C(=O)OC(C)C)OC[C@H]2O[C@@H](n3ccc(=O)[nH]c3=O)[C@](Cl)(Br)[C@@H]2O)c1`, the half-life in data set [1] was > 30 min. Also, the solubility in [2] was found to be 20 µM (≈ 12.8 µg/mL). Also, in [17], the CLint scaled was 335 mL/min/kg. Further, the Drug metabolism in data set [3] stood at 35 µM; in data set [4], 14 µM.
On to `CC(C)OC(=O)[C@H](C)N[P@](=O)(OC[C@H]1O[C@@H](n2ccc(=O)[nH]c2=O)[C@](C)(F)[C@@H]1O)Oc1ccccc1` [SOFOSBUVIR], for which the half-life in [1] is 120 min. Besides, the solubility in data set [2] was > 200 µM. The CLint scaled in [17] is 71.7 mL/min/kg. The Drug metabolism in [3] stood at 97 µM; in data set [4], 122 µM. Further, the logD (commonly the decadic logarithm of the distribution of all forms, ionised or not, between an organic phase and buffer at a given pH) in data set [18] stood at 3.02. Also, the CC50 in data set [19] is > 100 µM.
